For assay [1], the target named is T1, HIF-2α HIS TAG-PASB Domain (Homo sapiens, UniProt Q99814).
T1 construct: 100 nM HIF-2α HIS TAG-PASB Domain
The assay can be described thus: HIF-2α Scintillation Proximity Assay (SPA). It is filed as binding. The settings on record: 100 nM HIF-2α HIS TAG-PASB Domain. In outline:
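IC50 values rest on percent inhibition, where the sample signal is scaled between high and low controls. Wells contain about 100 μL: compound dispensed as 2 μL of DMSO solution, 88 μL protein-probe mix and 10 μL of beads.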
Background: SPA uses beads or plates that emit light when radiolabelled molecules are held near them.

For assay [2], the system named is 786-0 cells. The assay can be described thus: VEGF ELISA Assay. In kind it is cell-based. The procedure: Each concentration had duplicated wells. About 20 hours later, medium was removed by suction and each well was supplied with 180 μL of growth medium. About 20 μl freshly-made 10× compound stocks were added to each well. […] The EC50 was calculated by GraphPad Prism using the dose-response-inhibition (four parameter) equation. The cell seeded plate was then subjected to CellTiter-Glo luminescence cell viability assay (Promega) by adding 50 μL of Celltiter Glo reagent into each well and shaking the plate for 8 minutes at 550 rpm (Thermomixer R, Eppendorf) then read luminescence signal in plate reader (3 second delay, 0.5 second/well integration time, Synergy 2 multi Detection Microplate reader) immediately.
(In an ELISA, binding on a coated surface is turned into a signal by an enzyme label.)

Assay [3] relates to 786-O-Hif-Luc cells. The assay can be described thus: Luciferase Assay. In kind it is cell-based. The settings on record: read-out: Luciferase EC50. Here is the method:
A pool of infected cells were then selected against 2 μg/mL of puromycin (P8833, Sigma) for 10 days followed by limited dilution to select single clones.
Each concentration was tested in triplicate. After about 24 hours, luciferase activity was determined using ONE-Glo Luciferase Assay Reagent (E6110, Promega) following the manufacturer's recommended procedure. EC50 were calculated by using Dotmatics software.

[4] abbreviates: 150 nM Compound 211 probe, read-out: SPA IC50.
The mark [5] stands for this setting: Homo sapiens, 786-0, 786-0 cells, VEGFA concentration in cell culture medium, read-out: VEGF ELISA EC50.
The mark [6] stands for this setting: 24 h, 786-O-Hif-Luc cells, about 24 hours.
The mark [7] stands for this setting: 786-0 cells, VEGFA concentration in cell culture medium, read-out: VEGF ELISA EC50.
The mark [8] stands for this setting: 786-O-Hif-Luc cells, about 24 hours.
Where [9] appears, read: Homo sapiens, 786-0, read-out: VEGF ELISA EC50.

Where two headings read alike, the source gives them in different places. Bounds are passed on as bounds.

The IC50 is the concentration needed to halve the response being measured. What is called EC50 is the concentration needed to bring the measured effect to its halfway point.

T1 sequence (Q99814 240-350 limits assumed): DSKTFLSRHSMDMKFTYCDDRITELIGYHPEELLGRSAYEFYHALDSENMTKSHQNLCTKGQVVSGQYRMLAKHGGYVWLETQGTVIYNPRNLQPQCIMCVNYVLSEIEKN

For `CS(=O)(=NC#N)c1ccc(Oc2cc(F)cc(C#N)c2)c2c1[C@H](O)C(F)(F)C2` (single isomer, unassigned) [Compound 20], the IC50 in assay [1] (setting [4]) stood at 27 nM. The EC50 in assay [2] (setting [5]) amounted to 67 nM; in assay [3] (setting [6]), 28 nM.
The matching figures for `N#Cc1cc(F)cc(Oc2ccc(S(=N)(=O)CF)c3c2CC(F)(F)[C@H]3O)c1` (single isomer, unassigned) [Compound 38]: 94 nM, 1440 nM and 195 nM.
For the molecule `N#Cc1cc(F)cc(Oc2ccc(S(=N)(=O)C(F)(F)F)c3c2CC(F)(F)[C@H]3O)c1` (single isomer, unassigned) [Compound 69], in assay [1] (setting [4]), the IC50 was below 5 nM. Further, in assay [2] (setting [5]), the concentration giving a half-maximal response (EC50) was found to be 20 nM.
With `N#Cc1cc(F)cc(Oc2ccc(S(=N)(=O)C(F)(F)F)c3c2CC(F)(F)[C@H]3O)c1` (single isomer, unassigned) [Compound 70], in assay [1] (setting [4]), the IC50 is below 5 nM. Further, in assay [2] (setting [7]), the 50% effective concentration (EC50) was 19 nM.
Regarding `CS(=O)(=NC#N)c1ccc(Oc2cc(F)cc(C#N)c2)c2c1[C@H](O)C(F)(F)[C@@H]2F` (single isomer, unassigned) [Compound 80], the IC50 in assay [1] (setting [4]) is below 5 nM. The EC50 in assay [2] (setting [5]) came to 17 nM; in assay [3] (setting [6]) it was 12 nM.
Consider `CS(=O)(=NC#N)c1ccc(Oc2cc(F)cc(C#N)c2)c2c1[C@H](O)C(F)(F)[C@@H]2F` (single isomer, unassigned) [Compound 81], for which, in assay [1] (setting [4]), the IC50 was below 5 nM. Moreover, the EC50 in assay [2] (setting [7]) worked out at 14 nM.
On to `CS(=O)(=NC#N)c1ccc(Oc2cncc(C#N)c2)c2c1[C@H](O)C(F)(F)[C@@H]2F` (single isomer, unassigned) [Compound 83], for which, in assay [1] (setting [4]), the IC50 came to 14 nM. Further, the 50% effective concentration (EC50) in assay [2] (setting [5]) turned out to be 95 nM; in assay [3] (setting [6]), 83 nM.
As for `CS(=O)(=NC#N)c1ccc(Oc2cncc(C#N)c2)c2c1[C@H](O)C(F)(F)[C@@H]2F` (single isomer, unassigned) [Compound 85], the half-inhibitory concentration (IC50) in assay [1] (setting [4]) was found to be 32 nM. Besides, the EC50 in assay [2] (setting [7]) was 190 nM; in assay [3] (setting [8]), 114 nM.
`N=S1(=O)c2ccc(Oc3cc(F)cc(F)c3)c(C(F)F)c2C(O)C1(F)F` (single isomer, unassigned) [Compound 162, 4-(Difluoromethyl)-5-(3,5-difluorophenoxy)-2,2-difluoro-3-hydroxy-1-imino-2,3-dihydro-1H-1λ^4-benzo[b]thiophene 1-oxide]: the 50% inhibitory concentration (IC50) in assay [1] (setting [4]) worked out at 29 nM. Also, the EC50 in assay [2] (setting [5]) amounted to 90 nM; in assay [3] (setting [6]), 69 nM.
As for `O=S(=O)(c1ccc(Oc2cc(F)cc(Cl)c2)c2c1[C@H](O)CC2)C(F)F` [Compound 2, (R)-4-(3-chloro-5-fluorophenoxy)-7-((difluoromethyl)sulfonyl)-2,3-dihydro-1H-inden-1-ol], the concentration giving a half-maximal response (EC50) in assay [2] (setting [9]) turned out to be 245 nM.
In assay [1] (SPA IC50, 150 nM Compound 211 probe), `N#Cc1cc(F)cc(Oc2ccc(S(=O)(=O)CF)c3c2CC(F)(F)[C@H]3O)c1` [Compound 3, (S)-3-((2,2-difluoro-7-((fluoromethyl)sulfonyl)-1-hydroxy-2,3-dihydro-1H-inden-4-yl)oxy)-5-fluorobenzonitrile] displayed a half-inhibitory concentration (IC50) below 5 nM. In addition, the EC50 in assay [2] (setting [5]) came out at 20 nM; in assay [3] (setting [6]), 7 nM.
For the molecule `N#Cc1ccc(Oc2cc(F)cc(F)c2)c2c1[C@H](O)C(F)(F)C2` [Compound 4, (S)-7-(3,5-Difluorophenoxy)-2,2-difluoro-3-hydroxy-2,3-dihydro-1H-indene-4-carbonitrile], the 50% effective concentration (EC50) in assay [2] (setting [9]) was 217 nM.
`Cc1cc(C#N)cc(Oc2ccc(S(=O)(=O)CF)c3c2CC(F)(F)[C@H]3O)c1` [Compound 7, (S)-3-((2,2-Difluoro-7-((fluoromethyl)sulfonyl)-1-hydroxy-2,3-dihydro-1H-inden-4-yl)oxy)-5-methylbenzonitrile]: in assay [1] (setting [4]), the half-inhibitory concentration (IC50) was below 5 nM. For the same molecule, the half-maximal effective concentration (EC50) in assay [2] (setting [5]) turned out to be 70 nM; in assay [3] (setting [6]), 34 nM.
In the case of `O=S(=O)(c1ccc(Oc2ccc(F)c3[nH]ncc23)c2c1[C@H](O)C(F)(F)C2)C(F)(F)F` [Compound 30, (S)-2,2-difluoro-4-((7-fluoro-1H-indazol-4-yl)oxy)-7-((trifluoromethyl)sulfonyl)-2,3-dihydro-1H-inden-1-ol], the figures for the EC50 in assay [2] (setting [5]) and in assay [3] (setting [6]) were 54 nM and 30 nM, respectively.
Regarding `N#Cc1cc(F)cc(Oc2ccc(S(N)(=O)=O)c3c2[C@@H](F)C(F)(F)[C@H]3O)c1` [Compound 102, (1R,3S)-7-(3-cyano-5-fluoro-phenoxy)-1,2,2-trifluoro-3-hydroxy-indane-4-sulfonamide], the results for the half-maximal effective concentration (EC50) in assay [2] (setting [9]) and in assay [3] (24 h) were 11 nM and 6 nM, respectively.
In the case of `O=S1(=O)c2ccc(Oc3cc(F)cc(Cl)c3)c(Br)c2C(O)C1(F)F` (stereo not drawn) [Compound 119, 4-Bromo-5-(3-chloro-5-fluorophenoxy)-2,2-difluoro-3-hydroxy-2,3-dihydrobenzo[b]thiophene 1,1-dioxide], the EC50 in assay [2] (Homo sapiens, 786-0 cells, VEGFA concentration in cell culture medium, read-out: VEGF ELISA EC50) amounted to 64 nM; in assay [3] (setting [8]), 46 nM.
For `COc1c(Oc2cc(F)cc(C#N)c2)ccc2c1C(O)C(F)(F)S2(=O)=O` (stereo not drawn) [Compound 197, 3-((2,2-Difluoro-3-hydroxy-4-methoxy-1,1-dioxido-2,3-dihydrobenzo[b]thiophen-5-yl)oxy)-5-fluorobenzonitrile], the concentration for half-maximal inhibition (IC50) in assay [1] (setting [4]) worked out at 940 nM. Moreover, the EC50 in assay [3] (setting [6]) stood at 1100 nM.
For `N#Cc1cc(F)cc(Oc2ccc3c(c2F)C(O)C(F)(F)S3(=O)=O)c1` (stereo not drawn) [Compound 198, 3-Fluoro-5-((2,2,4-trifluoro-3-hydroxy-1,1-dioxido-2,3-dihydrobenzo[b]thiophen-5-yl)oxy)benzonitrile] the same measures were 975 nM and 882 nM.
Consider `N#Cc1cccc(Oc2ccc3c(c2C(F)F)[C@@H](O)C(F)(F)S3(=O)=O)c1` [Compound 199, (R)-3-((4-(difluoromethyl)-2,2-difluoro-3-hydroxy-1,1-dioxido-2,3-dihydrobenzo[b]thiophen-5-yl)oxy)benzonitrile], for which the half-maximal inhibitory concentration (IC50) in assay [1] (setting [4]) worked out at 34 nM. In assay [3] (setting [6]), the EC50 came to 33 nM.
`O=S1(=O)c2ccc(Oc3ccc(F)c(F)c3)c(C(F)F)c2[C@@H](O)C1(F)F` [Compound 200, (R)-4-(Difluoromethyl)-5-(3,4-difluorophenoxy)-2,2-difluoro-3-hydroxy-2,3-dihydrobenzo[b]thiophene 1,1-dioxide]: the IC50 in assay [1] (setting [4]) was found to be 24 nM. Also, the EC50 in assay [3] (setting [6]) came to 79 nM.
For the molecule `N#Cc1cc(Oc2ccc3c(c2C(F)F)[C@@H](O)C(F)(F)S3(=O)=O)ccc1F` [Compound 201, (R)-5-((4-(Difluoromethyl)-2,2-difluoro-3-hydroxy-1,1-dioxido-2,3-dihydrobenzo[b]thiophen-5-yl)oxy)-2-fluorobenzonitrile], in assay [1] (setting [4]), the half-inhibitory concentration (IC50) came out at 72 nM. The EC50 in assay [3] (setting [6]) was 308 nM.
As for `O=S1(=O)c2ccc(OCC3CC3)c(C(F)F)c2[C@@H](O)C1(F)F` [Compound 203, (R)-5-(Cyclopropylmethoxy)-4-(difluoromethyl)-2,2-difluoro-3-hydroxy-2,3-dihydrobenzo[b]thiophene 1,1-dioxide], in assay [1] (setting [4]), the concentration for half-maximal inhibition (IC50) was 1890 nM. In assay [3] (setting [6]), the concentration giving a half-maximal response (EC50) was determined as 1160 nM.
For the molecule `O=S1(=O)c2ccc(Oc3cccc4sccc34)c(C(F)F)c2C(O)C1(F)F` (stereo not drawn) [Compound 204, 5-(Benzo[b]thiophen-4-yloxy)-4-(difluoromethyl)-2,2-difluoro-3-hydroxy-2,3-dihydrobenzo[b]thiophene 1,1-dioxide], the IC50 in assay [1] (setting [4]) stood at 11 nM. Besides, in assay [3] (setting [6]), the EC50 worked out at 455 nM.
As to `O=S1(=O)c2ccc(Oc3cccc4cn[nH]c34)c(C(F)F)c2C(O)C1(F)F` (stereo not drawn) [Compound 205, 5-((1H-Indazol-7-yl)oxy)-4-(difluoromethyl)-2,2-difluoro-3-hydroxy-2,3-dihydrobenzo[b]thiophene 1,1-dioxide], the IC50 in assay [1] (setting [4]) is 1760 nM. Further, the half-maximal effective concentration (EC50) in assay [3] (setting [6]) came out at 6900 nM.
`CC1(O)c2c(ccc(Oc3cc(F)cc(C#N)c3)c2C(F)F)S(=O)(=O)C1(F)F` (stereo not drawn) [Compound 206, 3-((4-(Difluoromethyl)-2,2-difluoro-3-hydroxy-3-methyl-1,1-dioxido-2,3-dihydrobenzo[b]thiophen-5-yl)oxy)-5-fluorobenzonitrile]: in assay [1] (setting [4]), the half-inhibitory concentration (IC50) was 200 nM. For the same molecule, the EC50 in assay [3] (setting [6]) amounted to 771 nM.
`N#Cc1c(Oc2cc(F)cc(F)c2)ccc2c1C(O)C(F)(F)S2(=O)=O` (stereo not drawn) [Compound 207, 5-(3,5-Difluorophenoxy)-2,2-difluoro-3-hydroxy-2,3-dihydrobenzo[b]thiophene-4-carbonitrile 1,1-dioxide]: the concentration for half-maximal inhibition (IC50) in assay [1] (setting [4]) came to 46 nM. Further, the EC50 in assay [3] (setting [6]) was found to be 427 nM.
On to `CC1(O)c2c(ccc(Oc3cc(F)cc(F)c3)c2Br)S(=O)(=O)C1(F)F` (stereo not drawn) [Compound 208, 4-Bromo-5-(3,5-difluorophenoxy)-2,2-difluoro-3-hydroxy-3-methyl-2,3-dihydrobenzo[b]thiophene 1,1-dioxide], for which the half-maximal inhibitory concentration (IC50) in assay [1] (setting [4]) was determined as 83 nM. Moreover, the EC50 in assay [3] (setting [6]) was determined as 296 nM.

Source of the values: patent publication US10098878B2, “HIF-2α inhibitors for treating iron overload disorders” (The Board of Regents of the University of Texas System, priority 2014, dated 2018).
